Assay results: US20120245159A1, “COMPOSITION AND METHOD FOR CONTROLLING ARTHROPOD PESTS” (SUMITOMO CHEMICAL COMPANY, LIMITED, priority 2009, published 2012)

Columns and labels:
[1] = test system: cotton aphid (Aphis gossypii); experiment: Test Example 3: pesticidal effect against cotton aphid by spray treatment (cucumber leaf disk, control value); assay type: in vivo; conditions: composition of the compound and clothianidin; spray over cucumber leaf disk, 25° C., 5 days; summary of Table 49
[2] = test system: brown planthopper (Nilaparvata lugens); experiment: Test Example 4: pesticidal effect against brown planthopper by foliage spray treatment of rice (control value); assay type: in vivo; conditions: foliage spray of rice seedlings, third-instar larvae, after 5 days
[3] = composition of the compound and clothianidin, summary of Table 50
[4] = composition of the compound and dinotefuran, summary of Table 54
[5] = composition of the compound and imidacloprid, summary of Table 53
[6] = composition of the compound and nitenpyram, summary of Table 51
[7] = composition of the compound and thiamethoxam, summary of Table 52

CC(C)COc1cnccc1-c1nc2cc(C(F)(F)F)ccc2o1 [Compound 116, 2-(3-isobutoxypyridin-4-yl)-5-(trifluoromethyl)benzoxazole]
high pesticidal efficacy: pesticidal efficacy against cotton aphid (Aphis gossypii) [1] | pesticidal efficacy against brown planthopper (Nilaparvata lugens) [2, 3] | pesticidal efficacy against brown planthopper (Nilaparvata lugens) [2, 4] | pesticidal efficacy against brown planthopper (Nilaparvata lugens) [2, 5] | pesticidal efficacy against brown planthopper (Nilaparvata lugens) [2, 6] | pesticidal efficacy against brown planthopper (Nilaparvata lugens) [2, 7]

FC(F)(F)COc1cnccc1-c1nc2cc(C(F)(F)F)ccc2o1 [Compound 39, 2-[3-(2,2,2-trifluoroethyl)oxypyridin-4-yl]-5-(trifluoromethyl)benzoxazole]
high pesticidal efficacy: pesticidal efficacy against cotton aphid (Aphis gossypii) [1] | pesticidal efficacy against brown planthopper (Nilaparvata lugens) [2, 3] | pesticidal efficacy against brown planthopper (Nilaparvata lugens) [2, 4] | pesticidal efficacy against brown planthopper (Nilaparvata lugens) [2, 5] | pesticidal efficacy against brown planthopper (Nilaparvata lugens) [2, 6] | pesticidal efficacy against brown planthopper (Nilaparvata lugens) [2, 7]

FC(F)(F)COc1cnccc1-c1nc2cc(C(F)(F)F)cnc2o1 [Compound 163]
high pesticidal efficacy: pesticidal efficacy against cotton aphid (Aphis gossypii) [1] | pesticidal efficacy against brown planthopper (Nilaparvata lugens) [2, 3] | pesticidal efficacy against brown planthopper (Nilaparvata lugens) [2, 4] | pesticidal efficacy against brown planthopper (Nilaparvata lugens) [2, 5] | pesticidal efficacy against brown planthopper (Nilaparvata lugens) [2, 6] | pesticidal efficacy against brown planthopper (Nilaparvata lugens) [2, 7]
